# How the values were obtained:
# [1] = test system: SK-OV-3 (ovarian cancer) cells; test: MTT cell growth inhibition, solid tumor cells; type: cell-based, human; settings: Homo sapiens, SK-OV-3, 72 h, MTT; for IC50: read-out: IC50; for IC90: read-out: IC90
# Description: (§1) Hep-2 (laryngeal carcinoma), A549 (human lung cancer), CaES-17 (esophageal cancer cell), PC-3 (prostate cancer), CNE (nasopharyngeal carcinoma cell) and SK-OV-3 (ovarian cancer cell), all of which were purchased from China Center For Type Culture Collection; RKO (human colon adenocarcinoma cell), MGC-803 (human gastric cancer cell), MG-63 (osteosarcoma), and U87-MG (malignant glioma cell), all of which were purchased from Fuxiang Bio-tech Co. Ltd., Shanghai, China; PANC-1 (pancreatic cancer), Becap37 (human breast cancer cell), Hela (human cervical cancer cell) and Hep G2 (human liver cancer cell), all of which were donated by Cancer Research Institute of Zhejiang University, China.
# (§2) 6000 well-growing human solid tumor cells were obtained and inoculated into wells of a 96-well cell culture plate. The culture medium was DMEM High Glucose cell culture medium containing 10% fetal bovine serum. The plate was placed in a carbon dioxide cell incubator (5% CO2) at 37° C. and incubated for 24 hours. After added with 7-substituted fangchinoline derivatives of different concentration and mixing uniformly, the plate was placed in a carbon dioxide cell incubator (5% CO2) at 37° C. and incubated for 72 hours. Then the viable cell concentration was determined by the MTT method.
# [2] = test system: PANC-1 (pancreatic cancer) cells; test: MTT cell growth inhibition, solid tumor cells; type: cell-based, human; settings: Homo sapiens, PANC-1, 72 h, MTT; for IC50: read-out: IC50; for IC90: read-out: IC90
# Description: as §1, §2
# [3] = test system: CNE (nasopharyngeal carcinoma) cells; test: MTT cell growth inhibition, solid tumor cells; type: cell-based, human; settings: Homo sapiens, CNE, 72 h, MTT; for IC50: read-out: IC50; for IC90: read-out: IC90
# Description: as §1, §2
# [4] = test system: PC-3 (prostate cancer) cells; test: MTT cell growth inhibition, solid tumor cells; type: cell-based, human; settings: Homo sapiens, PC-3, 72 h, MTT; for IC50: read-out: IC50; for IC90: read-out: IC90
# Description: as §1, §2
# [5] = test system: CaEs-17 (esophageal cancer) cells; test: MTT cell growth inhibition, solid tumor cells; type: cell-based, human; settings: Homo sapiens, CaEs17, CaEs-17, 72 h, MTT; for IC50: read-out: IC50; for IC90: read-out: IC90
# Description: as §1, §2
# [6] = test system: RPMI 8226 (multiple myeloma) cells; test: MTT cell growth inhibition, multiple myeloma cells; type: cell-based, human; settings: Homo sapiens, RPMI 8226, 72 h, MTT; for IC50: read-out: IC50; for IC90: read-out: IC90
# Method: Myeloma cell lines: RPMI8226 (multiple myeloma), purchased from Fuxiang Bio-tech Co. Ltd., Shanghai, China.
# (§3) 6000 well-growing cells were obtained and inoculated into wells of a 96-well cell culture plate. The culture medium was a RPMI-1640 cell culture medium containing 10% fetal bovine serum. After adding the 7-substituted fangchinoline derivatives of different concentrations the next day and mixing uniformly, the plate was placed in a carbon dioxide cell incubator (5% CO2) at 37° C. and incubated for 72 hours. Then the viable cell concentration was determined by the MTT method.
# [7] = test system: Hep G2 (human liver cancer) cells; test: MTT cell growth inhibition, solid tumor cells; type: cell-based; settings: Homo sapiens, HepG2, Hep G2, 72 h, MTT; for IC50: read-out: IC50; for IC90: read-out: IC90
# Description: as §1, §2
# [8] = test system: MGC-803 (human gastric cancer) cells; test: MTT cell growth inhibition, solid tumor cells; type: cell-based; settings: MGC-803, 72 h, MTT; for IC50: read-out: IC50; for IC90: read-out: IC90
# Description: as §1, §2
# [9] = test system: Hela (human cervical cancer) cells; test: MTT cell growth inhibition, solid tumor cells; type: cell-based; settings: Homo sapiens, Hela, 72 h, MTT; for IC50: read-out: IC50; for IC90: read-out: IC90
# Description: as §1, §2
# [10] = test system: Becap-37 (human breast cancer) cells; test: MTT cell growth inhibition, solid tumor cells; type: cell-based; settings: Homo sapiens, Becap-37, 72 h, MTT; for IC50: read-out: IC50; for IC90: read-out: IC90
# Description: as §1, §2
# [11] = test system: MG-63 (osteosarcoma) cells; test: MTT cell growth inhibition, solid tumor cells; type: cell-based; settings: Homo sapiens, MG-63, 72 h, MTT; for IC50: read-out: IC50; for IC90: read-out: IC90
# Description: as §1, §2
# [12] = test system: RKO (human colon adenocarcinoma) cells; test: MTT cell growth inhibition, solid tumor cells; type: cell-based; settings: Homo sapiens, RKO, 72 h, MTT; for IC50: read-out: IC50; for IC90: read-out: IC90
# Description: as §1, §2
# [13] = test system: A549 (human lung cancer) cells; test: MTT cell growth inhibition, solid tumor cells; type: cell-based; settings: Homo sapiens, A549, 72 h, MTT; for IC50: read-out: IC50; for IC90: read-out: IC90
# Description: as §1, §2
# [14] = test system: U87-MG (malignant glioma) cells; test: MTT cell growth inhibition, solid tumor cells; type: cell-based; settings: Homo sapiens, U-87 MG, U87-MG, 72 h, MTT; for IC50: read-out: IC50; for IC90: read-out: IC90
# Description: as §1, §2
# [15] = test system: Hep-2 (laryngeal carcinoma) cells; test: MTT cell growth inhibition, solid tumor cells; type: cell-based; settings: Homo sapiens, Hep-2, 72 h, MTT; for IC50: read-out: IC50; for IC90: read-out: IC90
# Description: as §1, §2
# [16] = test system: tumor; test: Antitumor activity compared with fangchinoline, overall statement; type: cell-based; settings: tumor type not specified
# [17] = test system: NB4 (acute promyelocytic leukemia) cells; test: MTT cell growth inhibition, leukemia cells; type: cell-based; settings: Homo sapiens, NB4, 72 h, MTT; for IC50: read-out: IC50; for IC90: read-out: IC90
# Description: (§4) Leukemia cell lines: leukemia cell lines: K562adr (drug-resistant, chronic myeloid leukemia, CML), NB4 (acute promyelocytic leukemia, AML), Kasumi-1 (acute myeloid leukemia M2 type, AML-M2), Jurkat (acute lymphoblastic leukemia, ALL), all of which were donated by Cancer Research Institute of Zhejiang University, China; and H9 (acute lymphoblastic leukemia, ALL), which was purchased from China Center for Type Culture Collection.
# (§5) Reagents: The standard sample of fangchinoline (FAN) was purchased from Ci Yuan Biotechnology Co., Ltd., Shaanxi, China; and the 7-substituted fangchinoline derivatives according to the present invention.
# as §3, with “well-growing leukemia” for “well-growing”, “incubating” for “incubated”
# [18] = test system: K562/ADR (K562adr, drug-resistant chronic myeloid leukemia) cells; test: MTT cell growth inhibition, leukemia cells; type: cell-based; settings: Homo sapiens, K562/ADR, 72 h, MTT; for IC50: read-out: IC50; for IC90: read-out: IC90
# Description: as §4, §5
# as §3, with “well-growing leukemia” for “well-growing”, “incubating” for “incubated”
SMILES,IC50 [1],IC90 [1],IC50 [2],IC90 [2],IC50 [3],IC90 [3],IC50 [4],IC90 [4],IC50 [5],IC90 [5],IC50 [6],IC90 [6],IC50 [7],IC90 [7],IC50 [8],IC90 [8],IC50 [9],IC90 [9],IC50 [10],IC90 [10],other results
C=C(C)COc1c(OC)cc2c3c1Oc1cc4c(cc1OC)CCN(C)[C@H]4Cc1ccc(cc1)Oc1cc(ccc1OC)C[C@@H]3N(C)CC2 [BS-FC-221],2.38 µg/mL,3.94 µg/mL,1.42 µg/mL,4.65 µg/mL,1.8 µg/mL,3.8 µg/mL,3 µg/mL,5.46 µg/mL,1.53 µg/mL,5.6 µg/mL,0.11 µg/mL,0.46 µg/mL,1.48 µg/mL,4.37 µg/mL,1.19 µg/mL,3.93 µg/mL,0.71 µg/mL,1.9 µg/mL,1.91 µg/mL,3.86 µg/mL,IC50 [11]: 0.8 µg/mL; IC90 [11]: 1.9 µg/mL; IC50 [12]: 1.37 µg/mL; IC90 [12]: 2.76 µg/mL; IC50 [13]: 1.2 µg/mL; IC90 [13]: 3.18 µg/mL; IC50 [14]: 1.13 µg/mL; IC90 [14]: 4.5 µg/mL; IC50 [15]: 1.9 µg/mL; IC90 [15]: 5.78 µg/mL; antitumor activity compared with that of fangchinoline [16]: significantly superior; IC50 [17]: 0.57 µg/mL; IC90 [17]: 1.88 µg/mL; IC50 [18]: 0.33 µg/mL; IC90 [18]: 1.31 µg/mL
COc1ccc2cc1Oc1ccc(cc1)C[C@H]1c3cc(c(OC)cc3CCN1C)Oc1c(OC(=O)c3c(F)cccc3Cl)c(OC)cc3c1[C@H](C2)N(C)CC3 [BS-FC-315],2.99 µg/mL,6.81 µg/mL,1.61 µg/mL,5.52 µg/mL,3.3 µg/mL,6.6 µg/mL,2.95 µg/mL,5.02 µg/mL,1.84 µg/mL,3.86 µg/mL,0.13 µg/mL,0.48 µg/mL,1.39 µg/mL,3.74 µg/mL,1.21 µg/mL,3.02 µg/mL,1.5 µg/mL,3.35 µg/mL,2.1 µg/mL,3.79 µg/mL,IC50 [11]: 2.4 µg/mL; IC90 [11]: 3.9 µg/mL; IC50 [12]: 1.15 µg/mL; IC90 [12]: 2.23 µg/mL; IC50 [13]: 1.85 µg/mL; IC90 [13]: 3.48 µg/mL; IC50 [14]: 1.34 µg/mL; IC90 [14]: 3.24 µg/mL; IC50 [15]: 3.66 µg/mL; IC90 [15]: 6.4 µg/mL; antitumor activity compared with that of fangchinoline [16]: significantly superior; IC50 [17]: 0.33 µg/mL; IC90 [17]: 1.32 µg/mL; IC50 [18]: 0.26 µg/mL; IC90 [18]: 2.14 µg/mL

# From US9328122B2, “7-substituted Hanfangichin B derivative, and preparation method and use thereof” (HANGZHOU BENSHENG PHARMACEUTICAL CO., LTD., priority 2012, dated 2016)
